{
  "source": "patent US12102089B2",
  "about": "“Method for inactivating mold spores” (DSM IP ASSETS B.V., priority 2017, dated 2024)",
  "system": "Aspergillus niger ATCC 9029AA",
  "assay": "Heat treatment of Aspergillus niger ATCC 9029AA spores in ice tea with natamycin, visual growth",
  "type": "cell-based",
  "set-up": "key to growth or no growth: growth (+); no growth (−)",
  "description": "Commercially available ice tea (Lipton, peach flavor, non-carbonated, 1.5 L) was adjusted to high water hardness by adding 1 ml of a solution of 39 g CaCl2 and 27 g MgCl2 added to 934 g water. ⅓ of this ice tea preparation (the pH of which was 3.15) was left as-such, ⅓ of the preparation was enriched with 5 ppm natamycin and ⅓ of the preparation was enriched with 10 ppm natamycin. Samples of 5 ml were made from each preparation in 15 ml sterile plastic tubes. Of each preparation 8 samples were pre-heated to the desired pasteurization temperature using a water bath. Temperatures used were RT, 60, 65, 70, 75, 80, 85 and 90° C. When the desired temperature was reached, 100 μl of a 2500 spores/ml spore suspension of Aspergillus niger ATCC 9029AA was added to each tube. Subsequently, the samples were kept for 30 seconds at the temperature in question in the water bath. Next, the samples were cooled on ice to a temperature of 25° C. Samples were incubated at 25° C. and visually examined for growth (formation of mold flakes or turbidity) for two months. Additionally, samples were enumerated according to ISO protocol 21527-1.2008 on day 0 (before heat treatment) and day 1 (after heat treatment) to count immediate loss of viability. Enumeration was repeated after 1 month when samples remained free from visual mold growth; most counts were reduced to <10 after heat treatment, but were still able to grow. For the results, see Table 1.",
  "data": [
    {"smiles": "C[C@@H]1C/C=C/C=C/C=C/C=C/[C@H](O[C@@H]2O[C@H](C)[C@@H](O)[C@H](N)[C@@H]2O)C[C@@H]2O[C@](O)(C[C@@H](O)C[C@H]3O[C@@H]3/C=C/C(=O)O1)C[C@H](O)[C@H]2C(=O)O", "note": "[natamycin]", "values": [
      {"measurement": "growth or no growth", "setting": "60°C, 5 ppm, day 1", "result": "−"},
      {"measurement": "growth or no growth", "setting": "60°C, 5 ppm, day 2", "result": "−"},
      {"measurement": "growth or no growth", "setting": "60°C, 5 ppm, day 3", "result": "−"},
      {"measurement": "growth or no growth", "setting": "60°C, 5 ppm, day 4", "result": "−"},
      {"measurement": "growth or no growth", "setting": "60°C, 5 ppm, day 5", "result": "−"},
      {"measurement": "growth or no growth", "setting": "60°C, 5 ppm, day 6", "result": "−"},
      {"measurement": "growth or no growth", "setting": "60°C, 5 ppm, day 7", "result": "+"},
      {"measurement": "growth or no growth", "setting": "60°C, 5 ppm, day 8", "result": "+"},
      {"measurement": "growth or no growth", "setting": "60°C, 5 ppm, day 9", "result": "+"},
      {"measurement": "growth or no growth", "setting": "60°C, 5 ppm, day 10", "result": "+"},
      {"measurement": "growth or no growth", "setting": "60°C, 5 ppm, day 11", "result": "+"},
      {"measurement": "growth or no growth", "setting": "60°C, 5 ppm, day 12", "result": "+"},
      {"measurement": "growth or no growth", "setting": "60°C, 5 ppm, day 13", "result": "+"},
      {"measurement": "growth or no growth", "setting": "60°C, 5 ppm, day 14", "result": "+"},
      {"measurement": "growth or no growth", "setting": "60°C, 5 ppm, day 15", "result": "+"},
      {"measurement": "growth or no growth", "setting": "60°C, 5 ppm, day 16", "result": "+"},
      {"measurement": "growth or no growth", "setting": "60°C, 5 ppm, day 17", "result": "+"},
      {"measurement": "growth or no growth", "setting": "60°C, 5 ppm, day 50", "result": "+"},
      {"measurement": "growth or no growth", "setting": "60°C, 10 ppm, day 1", "result": "−"},
      {"measurement": "growth or no growth", "setting": "60°C, 10 ppm, day 2", "result": "−"},
      {"measurement": "growth or no growth", "setting": "60°C, 10 ppm, day 3", "result": "−"},
      {"measurement": "growth or no growth", "setting": "60°C, 10 ppm, day 4", "result": "−"},
      {"measurement": "growth or no growth", "setting": "60°C, 10 ppm, day 5", "result": "−"},
      {"measurement": "growth or no growth", "setting": "60°C, 10 ppm, day 6", "result": "−"},
      {"measurement": "growth or no growth", "setting": "60°C, 10 ppm, day 7", "result": "−"},
      {"measurement": "growth or no growth", "setting": "60°C, 10 ppm, day 8", "result": "−"},
      {"measurement": "growth or no growth", "setting": "60°C, 10 ppm, day 9", "result": "−"},
      {"measurement": "growth or no growth", "setting": "60°C, 10 ppm, day 10", "result": "+"},
      {"measurement": "growth or no growth", "setting": "60°C, 10 ppm, day 11", "result": "+"},
      {"measurement": "growth or no growth", "setting": "60°C, 10 ppm, day 12", "result": "+"},
      {"measurement": "growth or no growth", "setting": "60°C, 10 ppm, day 13", "result": "+"},
      {"measurement": "growth or no growth", "setting": "60°C, 10 ppm, day 14", "result": "+"},
      {"measurement": "growth or no growth", "setting": "60°C, 10 ppm, day 15", "result": "+"},
      {"measurement": "growth or no growth", "setting": "60°C, 10 ppm, day 16", "result": "+"},
      {"measurement": "growth or no growth", "setting": "60°C, 10 ppm, day 17", "result": "+"},
      {"measurement": "growth or no growth", "setting": "60°C, 10 ppm, day 50", "result": "+"},
      {"measurement": "growth or no growth", "setting": "65°C, 5 ppm, day 1", "result": "−"},
      {"measurement": "growth or no growth", "setting": "65°C, 5 ppm, day 2", "result": "−"},
      {"measurement": "growth or no growth", "setting": "65°C, 5 ppm, day 3", "result": "−"},
      {"measurement": "growth or no growth", "setting": "65°C, 5 ppm, day 4", "result": "−"},
      {"measurement": "growth or no growth", "setting": "65°C, 5 ppm, day 5", "result": "−"},
      {"measurement": "growth or no growth", "setting": "65°C, 5 ppm, day 6", "result": "−"},
      {"measurement": "growth or no growth", "setting": "65°C, 5 ppm, day 7", "result": "−"},
      {"measurement": "growth or no growth", "setting": "65°C, 5 ppm, day 8", "result": "−"},
      {"measurement": "growth or no growth", "setting": "65°C, 5 ppm, day 9", "result": "−"},
      {"measurement": "growth or no growth", "setting": "65°C, 5 ppm, day 10", "result": "−"},
      {"measurement": "growth or no growth", "setting": "65°C, 5 ppm, day 11", "result": "−"},
      {"measurement": "growth or no growth", "setting": "65°C, 5 ppm, day 12", "result": "−"},
      {"measurement": "growth or no growth", "setting": "65°C, 5 ppm, day 13", "result": "−"},
      {"measurement": "growth or no growth", "setting": "65°C, 5 ppm, day 14", "result": "−"},
      {"measurement": "growth or no growth", "setting": "65°C, 5 ppm, day 15", "result": "−"},
      {"measurement": "growth or no growth", "setting": "65°C, 5 ppm, day 16", "result": "−"},
      {"measurement": "growth or no growth", "setting": "65°C, 5 ppm, day 17", "result": "−"},
      {"measurement": "growth or no growth", "setting": "65°C, 5 ppm, day 50", "result": "−"},
      {"measurement": "growth or no growth", "setting": "65°C, 10 ppm, day 1", "result": "−"},
      {"measurement": "growth or no growth", "setting": "65°C, 10 ppm, day 2", "result": "−"},
      {"measurement": "growth or no growth", "setting": "65°C, 10 ppm, day 3", "result": "−"},
      {"measurement": "growth or no growth", "setting": "65°C, 10 ppm, day 4", "result": "−"},
      {"measurement": "growth or no growth", "setting": "65°C, 10 ppm, day 5", "result": "−"},
      {"measurement": "growth or no growth", "setting": "65°C, 10 ppm, day 6", "result": "−"},
      {"measurement": "growth or no growth", "setting": "65°C, 10 ppm, day 7", "result": "−"},
      {"measurement": "growth or no growth", "setting": "65°C, 10 ppm, day 8", "result": "−"},
      {"measurement": "growth or no growth", "setting": "65°C, 10 ppm, day 9", "result": "−"},
      {"measurement": "growth or no growth", "setting": "65°C, 10 ppm, day 10", "result": "−"},
      {"measurement": "growth or no growth", "setting": "65°C, 10 ppm, day 11", "result": "−"},
      {"measurement": "growth or no growth", "setting": "65°C, 10 ppm, day 12", "result": "−"},
      {"measurement": "growth or no growth", "setting": "65°C, 10 ppm, day 13", "result": "−"},
      {"measurement": "growth or no growth", "setting": "65°C, 10 ppm, day 14", "result": "−"},
      {"measurement": "growth or no growth", "setting": "65°C, 10 ppm, day 15", "result": "−"},
      {"measurement": "growth or no growth", "setting": "65°C, 10 ppm, day 16", "result": "−"},
      {"measurement": "growth or no growth", "setting": "65°C, 10 ppm, day 17", "result": "−"},
      {"measurement": "growth or no growth", "setting": "65°C, 10 ppm, day 50", "result": "−"},
      {"measurement": "germination", "setting": "70° C., in the presence of natamycin", "result": "no germination occurred"},
      {"measurement": "growth or no growth", "setting": "70°C, 5 ppm, day 1", "result": "−"},
      {"measurement": "growth or no growth", "setting": "70°C, 5 ppm, day 2", "result": "−"},
      {"measurement": "growth or no growth", "setting": "70°C, 5 ppm, day 3", "result": "−"},
      {"measurement": "growth or no growth", "setting": "70°C, 5 ppm, day 4", "result": "−"},
      {"measurement": "growth or no growth", "setting": "70°C, 5 ppm, day 5", "result": "−"},
      {"measurement": "growth or no growth", "setting": "70°C, 5 ppm, day 6", "result": "−"},
      {"measurement": "growth or no growth", "setting": "70°C, 5 ppm, day 7", "result": "−"},
      {"measurement": "growth or no growth", "setting": "70°C, 5 ppm, day 8", "result": "−"},
      {"measurement": "growth or no growth", "setting": "70°C, 5 ppm, day 9", "result": "−"},
      {"measurement": "growth or no growth", "setting": "70°C, 5 ppm, day 10", "result": "−"},
      {"measurement": "growth or no growth", "setting": "70°C, 5 ppm, day 11", "result": "−"},
      {"measurement": "growth or no growth", "setting": "70°C, 5 ppm, day 12", "result": "−"},
      {"measurement": "growth or no growth", "setting": "70°C, 5 ppm, day 13", "result": "−"},
      {"measurement": "growth or no growth", "setting": "70°C, 5 ppm, day 14", "result": "−"},
      {"measurement": "growth or no growth", "setting": "70°C, 5 ppm, day 15", "result": "−"},
      {"measurement": "growth or no growth", "setting": "70°C, 5 ppm, day 16", "result": "−"},
      {"measurement": "growth or no growth", "setting": "70°C, 5 ppm, day 17", "result": "−"},
      {"measurement": "growth or no growth", "setting": "70°C, 5 ppm, day 50", "result": "−"},
      {"measurement": "growth or no growth", "setting": "70°C, 10 ppm, day 9", "result": "−"},
      {"measurement": "growth or no growth", "setting": "70°C, 10 ppm, day 10", "result": "−"},
      {"measurement": "growth or no growth", "setting": "70°C, 10 ppm, day 11", "result": "−"},
      {"measurement": "growth or no growth", "setting": "70°C, 10 ppm, day 12", "result": "−"},
      {"measurement": "growth or no growth", "setting": "70°C, 10 ppm, day 13", "result": "−"},
      {"measurement": "growth or no growth", "setting": "70°C, 10 ppm, day 14", "result": "−"},
      {"measurement": "growth or no growth", "setting": "70°C, 10 ppm, day 15", "result": "−"},
      {"measurement": "growth or no growth", "setting": "70°C, 10 ppm, day 16", "result": "−"},
      {"measurement": "growth or no growth", "setting": "70°C, 10 ppm, day 17", "result": "−"},
      {"measurement": "growth or no growth", "setting": "70°C, 10 ppm, day 50", "result": "−"},
      {"measurement": "germination", "setting": "RT and 60° C., 5 ppm natamycin", "result": "delayed germination"},
      {"measurement": "germination", "setting": "RT and 60° C., 10 ppm natamycin", "result": "longer delay"}
    ]}
  ]
}
